Laboratory results published in patent US20060069132A1, “Azolecarboxamide herbicides” (priority 2004, published 2006).

How the values were obtained:
barley cv. Boone = assay: Test I safening of Compound 6 by Harmony Extra Herbicide, pre-/postemergence; type: in vivo, Hordeum vulgare
Method: This test evaluated the safening of Compound 6 on barley (Hordeum vulgare L.) cv. ‘Boone’ and wheat (Triticum aestivum L.) cv. ‘Recital’ by Harmony® Extra Herbicide, which comprises 50 wt % thifensulfuron-methyl and 25 wt % tribenuron-methyl. Barley and wheat seeds were planted in pots containing a pasteurized blend of Matapeake soil and sand. For postemergence testing the plants were grown 10 days so the barley seedlings were at the 2-leaf stage and the wheat seedlings were at the 2-3-leaf stage at time of treatment. Preemergence treatments were applied the day after the seeds were planted. Treatments were applied by spraying Compound 6 and/or […] in a non-phytotoxic solvent mixture, using flat fan nozzle and a spray volume of 280 L/ha. The treatments were triply replicated and the results subsequently averaged. The pots were placed on a greenhouse bench using a complete randomized block design except for the first replicate, which was unrandomized. The plants were grown in the greenhouse and watered as needed with a dilute nutrient solution containing 200 ppm of N. Illumination was daylight supplemented by artificial sources to maintain a photoperiod of 14 hours. The temperature was maintained at 23±2° C. during the day and 17±2° C. at night. The effects of the treatments were rated 25 days after preemergence treatment and 15 days after postemergence treatment. The plant response was visually rated in comparison to untreated controls using a scale of 0 to 100, with 0 representing no effect and 100 representing complete plant death.
Colby's Equation was used to calculate the expected additive herbicidal effect of the mixtures of Compound 6 with Harmony® Extra (i.e. a 2:1 mixture by weight of thifensulfuron-methyl and tribenuron-methyl). Colby's Equation (Colby, S. R. “Calculating Synergistic and Antagonistic Responses of Herbicide Combinations,” Weeds, 15(1), pp 20-22 (1967)) calculates the expected additive effect of herbicidal mixtures, and for two active ingredients is of the form: Pa+b=Pa+Pb−(PaPb/100) wherein • Pa+b is the percentage effect of the mixture expected from additive contribution of the individual components, • Pa is the observed percentage effect of the first active ingredient at the same use rate as in the mixture, and • Pb is the observed percentage effect of the second active ingredient at the same use rate as in the mixture.
The results and additive effects expected from Colby's Equation for the preemergence test are listed in Table I1, and the results and additive effects expected from Colby's Equation for the postemergence test are listed in Table I2.

velvetleaf (ABUTH) = assay: Test J Compounds 2 and 6 alone and in combination with other herbicides, foliage spray; type: in vivo, Abutilon theophrasti; parameters: key: 0 = no effect, 100 = complete control; conditions: applied alone
Source text: Colby's Equation was used to calculate the expected additive herbicidal effect of the mixtures of Compound 6 with Harmony® Extra (i.e. a 2:1 mixture by weight of thifensulfuron-methyl and tribenuron-methyl). […]
Seeds of test plants consisting of barnyardgrass (ECHCG; Echinochloa crus-galli (L.) Beauv.), blackgrass (ALOMY; Alopecurus myosuroides Huds.), Surinam grass (BRADC; Urochloa decumbens (Staph) R. D. Webster, previously named Brachiaria decumbens Stapf), cocklebur (XANST, Xanthium strumarium L.), corn (ZEAMD, Zea mays L. cv. ‘Pioneer 33G26’), large crabgrass (DIGSA, Digitaria sanguinalis (L.) Scop.), giant foxtail (SETFA, Setaria faberi Herrm.), lambsquarters (CHEAL, Chenopodium album L.), morningglory (IPOCO, Ipomoea coccinea L.), pigweed (AMARE, Amaranthus retroflexus L.), velvetleaf (ABUTH, Abutilon theophrasti Medik.) wheat (TRZAS, Triticum aestivum L. cv. ‘Recital’) and wild oat (AVEFA, Avena fatua L.) were planted in Redi-Earth® planting medium (Scotts Company, 14111 Scottslawn Road, Marysville, Ohio 43041) comprising spaghnum peat moss and vermiculite. […] Also listed in Table J are the expected effects for the mixtures calculated using Colby's Equation.

Russian thistle = assay: Test F pre-/postemergence herbicide test; type: in vivo, Salsola kali
Source text: (§1) Seeds of plant species selected from annual blugrass (Poa annua L.), blackgrass (Alopecurus myosuroides Huds.), catchweed bedstraw (Gallium aparine L.), common chickweed (Stellaria media (L.) Vill./Cyr.), downy bromegrass (Bromus tectorum L.), green foxtail (Setaria viridis (L.) Beauv.), Italian ryegrass (Lolium multiflorum Lam.), kochia (Kochia scoparia (L.). Schrad.), lambsquarters (Chenopodium album L.), littleseed canarygrass (Phalaris minor Retz.), pigweed (Amaranthus retroflexus L.), Russian thistle (Salsola kali L. ssp. Ruthenica (Iljin) Soo), wild buckwheat (Polygonum convolvulus L.), wild mustard (Sinapis arvensis L.), wild oat (Avena fatua L.), windgrass (Apera spica-venti (L.) Beauv.), winter barley (Hordeum vulgare L.), and wheat (Triticum aestivum L.) were planted and treated preemergence with test chemicals formulated in a non-phytotoxic solvent mixture which included a surfactant.
(§2) At the same time, plants selected from these crop and weed species were treated with postemergence applications of some of the test chemicals formulated in the same manner. Plants ranged in height from 2 to 18 cm (1- to 4-leaf stage) for postemergence treatments. Treated plants and controls were maintained in a greenhouse for 12 to 14 days, after which time all species were compared to controls and visually evaluated. Plant response ratings, summarized in Table F, are based on a scale of 0 to 100 where 0 is no effect and 100 is complete control. A dash (-) response means no test result.

wild mustard = assay: Test F pre-/postemergence herbicide test; type: in vivo, Sinapis arvensis
Source text: as §1, §2

## CCn1nc(C(C)(C)C)cc1C(=O)Nc1cc(C(=O)N(C)C)ccc1F [Compound 6, N-[5-[(dimethylamino)carbonyl]-2-fluorophenyl]-3-(1,1-dimethylethyl)-1-ethyl-1H-pyrazole-5-carboxamide]
Barley cv. Boone; postemergence, Compound 6 16, thifensulfuron-methyl 0, tribenuron-methyl 0 g a.i./ha
  Barley Observed effect: 47
Barley cv. Boone; postemergence, Compound 6 31, thifensulfuron-methyl 0, tribenuron-methyl 0 g a.i./ha
  Barley Observed effect: 73
Barley cv. Boone; preemergence, Compound 6 16, thifensulfuron-methyl 0, tribenuron-methyl 0 g a.i./ha
  Barley Observed effect: 35
Barley cv. Boone; preemergence, Compound 6 31, thifensulfuron-methyl 0, tribenuron-methyl 0 g a.i./ha
  Barley Observed effect: 68
Velvetleaf (ABUTH); 62 g a.i./ha
  ABUTH Obsd.: 27
Velvetleaf (ABUTH); 125 g a.i./ha
  ABUTH Obsd.: 47

## CCn1nc(C(C)(C)C)cc1C(=O)Nc1cc(C(=O)OC(C)C)c(F)cc1F [Compound 248]
Russian thistle; Postemergence, 31 g ai/ha
  Plant response rating (0-100), Thistle: 25
Russian thistle; Postemergence, 62 g ai/ha
  Plant response rating (0-100), Thistle: 30
Russian thistle; Postemergence, 125 g ai/ha
  Plant response rating (0-100), Thistle: 30
Russian thistle; Postemergence, 250 g ai/ha
  Plant response rating (0-100), Thistle: 40
Russian thistle; Preemergence, 31 g ai/ha
  Plant response rating (0-100), Thistle: 30
Russian thistle; Preemergence, 62 g ai/ha
  Plant response rating (0-100), Thistle: 30
Russian thistle; Preemergence, 125 g ai/ha
  Plant response rating (0-100), Thistle: 30
Russian thistle; Preemergence, 250 g ai/ha
  Plant response rating (0-100), Thistle: 45
Wild mustard; Postemergence, 31 g ai/ha
  Plant response rating (0-100), Mustard, Wild: 30
Wild mustard; Postemergence, 62 g ai/ha
  Plant response rating (0-100), Mustard, Wild: 40
Wild mustard; Postemergence, 125 g ai/ha
  Plant response rating (0-100), Mustard, Wild: 60
Wild mustard; Postemergence, 250 g ai/ha
  Plant response rating (0-100), Mustard, Wild: 60
Wild mustard; Preemergence, 31 g ai/ha
  Plant response rating (0-100), Mustard, Wild: 40
Wild mustard; Preemergence, 62 g ai/ha
  Plant response rating (0-100), Mustard, Wild: 50
Wild mustard; Preemergence, 125 g ai/ha
  Plant response rating (0-100), Mustard, Wild: 50
Wild mustard; Preemergence, 250 g ai/ha
  Plant response rating (0-100), Mustard, Wild: 50
